US8206756B2, “Herbal composition for inflammatory disorders” (Piramal Life Sciences Limited, priority 2005, dated 2012)

What was measured:
TNF-α [1] = assay: LPS-induced TNF-α production in hPBMCs (ELISA); assay type: cell-based; details: Homo sapiens; LPS-stimulated hPBMC
Experimental: Primary screening—Human peripheral blood mononuclear cells (hPBMCs). TNF-α production by lipopolysaccharides (LPS) in hPBMCs was measured according to the method described by Jansky, L. et al (Physiol. Res. 52: 593-598, (2003)). Blood was collected from healthy donors into Potassium EDTA vacutainer tubes (BD vacutainer). The PBMCs were isolated using gradient centrifugation in Histopaque-1077 solution (Sigma). Isolated PBMCs were suspended in RPMI 1640 culture medium (Gibco BRL, Pasley, UK) containing 10% fetal bovine serum (FBS) (Hyclone, Utah, USA), 100 U/ml penicillin (Sigma Chemical Co. St Louis, Mo.) and 100 μg/ml streptomycin (Sigma Chemical Co. St Louis, Mo.). The cell concentration was adjusted to 1×10^6 cells/ml. The viability as determined by trypan blue dye exclusion was uniformly ≧98%. The cell suspension (100 μl) was added to the wells of a 96-well culture plate. Following cell plating, 79 μl of the culture medium and 1 μl of eight different concentrations of the test samples (final concentration 0.03, 0.1, 0.3, 1, 3, 10, 30, 100 μg/ml) dissolved in DMSO (dimethylsulfoxide, Sigma, Mo., USA) were added to the cells. The final concentration of DMSO was adjusted to 0.5%. The vehicle (0.5% DMSO) was used as control. Rolipram (100, 300 μM) was used as a standard. The plates were incubated for 30 min at 37° C. in an atmosphere of 5% CO2. Finally, 20 μl (10 μg/ml) per well of LPS, (Escherchia coli 0127:B8, Sigma Chemical Co., St. Louis, Mo.) was added, for a final concentration of 1 μg/ml. […] The % inhibition was recorded. Percent cytotoxicity of the test samples compared to control was evaluated.
The effect of the plant extract on the proinflammatory cytokines: TNF-α, interleukin-1β (IL-1β), interleukin-6 (IL-6) and interleukin-8 (IL-8) was measured using the supernatants generated in the primary screening assay. […]
The effect of the Compound 1, on the proinflammatory cytokines: TNF-α interleukin-1β (IL-1β), interleukin-6 (IL-6) and interleukin-8 (IL-8) was measured using the supernatants generated in the primary screening assay. […]

TNF-α [2] = assay: LPS-induced TNF-α release in BALB/c mice; assay type: in vivo; details: LPS 1 mg/kg i.p., plasma
Experimental: The protocol described by Fukuda T. et al (Eur. J. Pharmacol., 391: 317-320, (2000)) was followed. BALB/c mice were divided into groups of ten each. The test sample, suspended in Tween 80 and 0.5% carboxy methylcellulose (CMC), was orally (p.o.) administered to the mice. One hour later, LPS dissolved in sterile, pyrogen-free saline was administered i.p. at the dose of 1 mg/kg. The negative control group received saline as an i.p injection, while all other groups received LPS. Rolipram (30 mg/kg, p.o.) was used as the standard drug. One and a half hours later, under urethane anaesthesia (1.5 g/kg, i.p.) blood was collected from the abdominal artery using a 1 ml syringe flushed with heparin (500 IU/ml). Heparin (5 μl) was used as an anticoagulant in the blood collection tubes. Plasma was separated by centrifugation at 10000 rpm at room temperature, aliquoted and stored at −70° C. until analysis. TNF-α levels in the blood samples were assayed using ELISA and percent inhibition of TNF-α release compared to the control group was calculated.

IC50 (TNF-α [1]): 700 nM
SMILES: C=C1C(=O)OC2C3=C(C)CCCC3(C)CCC12O (stereo not shown) [Compound 1, 3a-hydroxy-5a,9-dimethyl-3-methylene-3a,4,5,5a,6,7,8,9b-octahydro-3H-naphtho[1,2-b]furan-2-one]
% inhibition of TNF-α release (TNF-α [2]; 10 mg/kg p.o.): 28.69 ± 13.71%
% inhibition of TNF-α release (TNF-α [2]; 30 mg/kg p.o.): 39.98 ± 10.32%
% inhibition of TNF-α release (TNF-α [2]; 100 mg/kg p.o.): 87.10 ± 3.67%
